Reference: patent publication US20240002393A1, “SUBSTITUTED BENZO[f][l ,2,4JTRIAZOL0[4,3-a][l ,4J[…] GABA A GAMMA! POSITIVE ALLOSTERIC MODULATORS” (Hoffmann-La Roche Inc., priority 2020, published 2024)
“And” between values parts separate entries of the source, which are not always exact repeats. Identical values can stand only once.

How the values were obtained:
[1] = target: human GABAA α1β3γ2 receptor (Homo sapiens (Human), UniProt P14867+P18507); test: Radioligand binding assay, [3H]Flumazenil competition, γ2-containing GABAA subtypes; conditions: HEK293F membranes, [3H]Flumazenil 1 nM, mean of two determinations; read-out: Ki h-GABAA α1β3γ2
Summary of the method: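 Competition with [3H]Flumazenil (81.1 Ci/mmol) for binding to HEK293F cells transiently expressing human α1β3γ2 receptors, prepared in Mannitol Buffer pH 7.2-7.4. Incubated 1 hour at 4° C to equilibrium, filtered, washed with ice-cold 50 mM Tris pH 7.5, counted by liquid scintillation. Ki values are means of two determinations.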

[2] = target: human GABAA α1β2γ1 receptor (Homo sapiens (Human), UniProt P14867+Q8N1C3); test: Radioligand binding assay, [3H]RO7239181 competition, γ1-containing GABAA subtypes; conditions: HEK293F membranes, [3H]RO7239181 20-30 nM, mean of two determinations
[3] = target: human GABAA α2β2γ1 receptor (Homo sapiens (Human), UniProt P47869+Q8N1C3); test: as above; conditions: for Ki: HEK293F membranes, [3H]RO7239181 20-30 nM, mean of two determinations, read-out: Ki h-GABAA α2β2γ1; for γ2/γ1 Selectivity Ratio: Ki α1β3γ2 (nM)/Ki α2β2γ1 (nM); for LogSel: Log[Ki α1β3γ2 (nM)/Ki α2β2γ1 (nM)]
[4] = target: human GABAA α5β2γ1 receptor (Homo sapiens (Human), UniProt P31644+Q8N1C3); test: as above; conditions: HEK293F membranes, mean of two determinations
Method: The affinity of compounds at GABAA γ1 subunit-containing receptors was measured by competition for [^3H]RO7239181 (67.3 Ci/mmol; Roche) binding to membranes from HEK293F cells (ThermoFisher R79007) expressing human (transiently transfected) receptors of composition α5β2γ1, α2β2γ1, α1β2γ1. For better protein expression of the α2 subunit-containing receptors, the 28 amino acid long signal peptide (Met1 to Ala28) of the human GABAA α2 subunit was substituted by the 31 amino acid long signal peptide (Met1 to Ser31) of human GABAA α5 subunit.
Harvested pellets from HEK293F cells expressing the different GABAA receptor subtypes were resuspended in Mannitol Buffer pH 7.2-7.4 (Mannitol 0.29M, Triethylamine 10 mM, Acetic acid 10 mM, EDTA 1 mM plus protease inhibitors (20 tablets Complete, Roche Diagnostics Cat. No. 05 056 489 001 per liter)), washed two times and then resuspended at 1:10 to 1:15 dilution in the same buffer. Cell disruption was performed by stirring the suspension in a Parr vessel #4637 at 435 psi for 15 minutes, and then the suspensions were centrifuged at 1000×g for 15 minutes at 4° C. (Beckman Avanti J-HC; rotor JS)-4.2). The supernatant (S1) was transferred in a 21 Schott flask and the pellet (P1) was resuspended with Mannitol Buffer up to 175 ml. The resuspended pellet was transferred into a 250 ml Corning centrifugal beaker and centrifuged at 1500×g for 10 minutes at 4° C. (Beckman Avanti J-HC; rotor JS)-4.2). The supernatant (S1) was then transferred in the 21 Schott flask and the pellet was discarded. The supernatants (S1) were centrifuged in 500 ml Beckman polypropylene centrifugal beaker at 15,000×g for 30 minutes at 4° C. (Beckman Avanti J-20 XP; rotor JLA-10.500). The pellet (P2) was resuspended with Mannitol Buffer 1:1 and frozen at −80° C. The supernatant (S2) was centrifuged in 100 ml Beckman polypropylene centrifugal tubes at 48000×g for 50 minutes at […] (Beckman Avanti J-20 XP; rotor JA-18). The supernatant (S3) was discarded and the pellet (P3) was resuspended with 1:1 Mannitol Buffer. The P2 and P3 protein concentration was determined with the BIORAD Standard assay method with bovine serum albumin as standard and measured on the NANO-Drop 1000. The membrane suspension was aliquots (500 μl per tube) and stored at −80° C. until required.
Membrane homogenates were resuspended and polytronised (Polytron PT1200E Kinematica AG) in Potassium Phosphate 10 mM, KCl 100 mM binding buffer at pH 7.4 to a final assay concentration determined with a previous experiment.
Radioligand binding assays were carried out in a volume of 200 µL (96-well plates) which contained 100 μL of cell membranes, [^3H]RO7239181 at a concentration of 1.5 nM (α5β2γ1) or 20-30 nM (α1β2γ1, 2β2γ1) and the test compound in the range of [0.3-10000]×10^−9 M. Nonspecific binding was defined by 10×10^−6 (α5β2γ1) and 30×10^−6 M RO7235136 and typically represented less than 5% (α5β2γ1) and less than 20% (α1β2γ1, α2β2γ1) of the total binding. Assays were incubated to equilibrium for 1 hour at 4° C. and then, membranes were filtered onto unifilter (96-well white microplate with bonded GF/C filters preincubated 20-50 minutes in 0.3% Polyethylenimine) with a Filtermate 196 harvester (Packard BioScience) and washed 4 times with cold Potassium Phosphate 10 mM pH 7.4, KCl 100 mM binding buffer. After drying, filter-retained radioactivity was detected by liquid scintillation counting. K, values were calculated using Excel-Fit (Microsoft) and are the means of two determinations.
Representative test results, obtained by the above described assay measuring binding affinity to HEK293 cells expressing human (h) receptors, are shown in the Table 1.

| SMILES | Ki [1] [µM] | Ki [2] [µM] | Ki [3] [µM] | γ2/γ1 Selectivity Ratio [3] | LogSel [3] | Ki [4] [µM] |
| --- | --- | --- | --- | --- | --- | --- |
| Cc1nnc2n1-c1ccc(Br)c(Cl)c1C(c1ncccc1F)=N[C@H]2C [Example 85, (4S)-8-bromo-7-chloro-6-(3-fluoro-2-pyridyl)-1,4-dimethyl-4H-[1,2,4]triazolo[4,3-a][1,4]benzodiazepine] | 0.705 | 0.0636 | 0.053 | 13.3 | 1.12 | 0.0033 |
| Cc1ccc(-c2nnc3n2-c2ccc(Cl)c(Cl)c2C(c2c(F)cccc2F)=N[C@H]3C)nn1 [Example 86, (4S)-7,8-dichloro-6-(2,6-difluorophenyl)-4-methyl-1-(6-methylpyridazin-3-yl)-4H-[1,2,4]triazolo[4,3-a][1,4]benzodiazepine] | 0.86 | 0.0059 | 0.0044 | 195.1 and 195 | 2.29 and 2.3 | 0.0014 |
| Cc1cc(-c2nnc3n2-c2ccc(Cl)c(Cl)c2C(c2c(F)cccc2F)=N[C@H]3C)on1 [Example 87, 5-[(4S)-7,8-dichloro-6-(2,6-difluorophenyl)-4-methyl-4H-[1,2,4]triazolo[4,3-a][1,4]benzodiazepin-1-yl]-3-methyl-isoxazole] | 0.531 | 0.008 | 0.0075 | 70.9 | 1.85 | 0.0021 |
| Cc1ccc(-c2nnc3n2-c2ccc(Cl)c(Br)c2C(c2c(F)cccc2F)=N[C@H]3C)nn1 [Example 88, (4S)-7-bromo-8-chloro-6-(2,6-difluorophenyl)-4-methyl-1-(6-methylpyridazin-3-yl)-4H-[1,2,4]triazolo[4,3-a][1,4]benzodiazepine] | 1.45 | 0.0345 | 0.0109 | 133.6 | 2.13 | 0.0036 |
| C[C@@H]1N=C(c2c(F)cccc2F)c2c(ccc(Cl)c2Br)-n2c1n[nH]c2=O [Example 89, (4S)-7-bromo-8-chloro-6-(2,6-difluorophenyl)-4-methyl-2,4-dihydro-[1,2,4]triazolo[4,3-a][1,4]benzodiazepin-1-one] | 1.46 | 0.106 | 0.077 | 19.0 | 1.28 | 0.0043 |
| Cc1nnc2n1-c1ccc(C(F)(F)F)c(Cl)c1C(c1c(F)cccc1F)=N[C@H]2C [Example 92, (4S)-7-chloro-6-(2,6-difluorophenyl)-1,4-dimethyl-8-(trifluoromethyl)-4H-[1,2,4]triazolo[4,3-a][1,4]benzodiazepine] | 2.23 | 0.0483 | 0.0219 | 102.0 | 2.01 | 0.0018 |
| Cc1nnc2n1-c1ccc(C(C)(F)F)c(Cl)c1C(c1c(F)cccc1F)=N[C@H]2C [Example 93, (4S)-7-chloro-8-(1,1-difluoroethyl)-6-(2,6-difluorophenyl)-1,4-dimethyl-4H-[1,2,4]triazolo[4,3-a][1,4]benzodiazepine] | 5.96 | 0.0851 | 0.0391 | 152.1 | 2.18 | 0.0031 |
| Cc1cc(-c2nnc3n2-c2ccc(Cl)c(Cl)c2C(c2c(F)cccc2F)=N[C@H]3C)ncn1 [Example 94, (4S)-7,8-dichloro-6-(2,6-difluorophenyl)-4-methyl-1-(6-methylpyrimidin-4-yl)-4H-[1,2,4]triazolo[4,3-a][1,4]benzodiazepine] | 0.609 | 0.0103 | 0.008 | 76.4 | 1.88 | 0.002 |
| Cc1nccc(-c2nnc3n2-c2ccc(Cl)c(Cl)c2C(c2c(F)cccc2F)=N[C@H]3C)n1 [Example 95, (4S)-7,8-dichloro-6-(2,6-difluorophenyl)-4-methyl-1-(2-methylpyrimidin-4-yl)-4H-[1,2,4]triazolo[4,3-a][1,4]benzodiazepine] | 0.466 | 0.0247 | 0.0142 | 32.7 | 1.51 | 0.0015 |
| Cc1cc(-c2nnc3n2-c2ccc(Cl)c(Cl)c2C(c2c(F)cccc2F)=N[C@H]3C)nc(C)n1 [Example 96, (4S)-7,8-dichloro-6-(2,6-difluorophenyl)-1-(2,6-dimethylpyrimidin-4-yl)-4-methyl-4H-[1,2,4]triazolo[4,3-a][1,4]benzodiazepine] | 0.473 | 0.0279 | 0.0139 | 34.1 | 1.53 | 0.003 |
| Cc1ccc2c(c1Cl)C(c1c(F)cccc1F)=N[C@@H](C)c1nnc(C)n1-2 [Example 97, (4S)-7-chloro-6-(2,6-difluorophenyl)-1,4,8-trimethyl-4H-[1,2,4]triazolo[4,3-a][1,4]benzodiazepine] | 0.425 | 0.0336 | 0.0271 | 15.7 | 1.19 | 0.0025 |
| CC[C@@H]1N=C(c2c(F)cccc2F)c2c(ccc(Br)c2Cl)-n2c(C)nnc21 [Example 98, (4S)-8-bromo-7-chloro-6-(2,6-difluorophenyl)-4-ethyl-1-methyl-4H-[1,2,4]triazolo[4,3-a][1,4]benzodiazepine] | 1.46 | 0.0576 | 0.072 | 20.3 | 1.31 | 0.0044 |
| Cc1nnc2n1-c1ccc(C(F)F)c(Cl)c1C(c1c(F)cccc1F)=N[C@H]2C [Example 99, (4S)-7-chloro-8-(difluoromethyl)-6-(2,6-difluorophenyl)-1,4-dimethyl-4H-[1,2,4]triazolo[4,3-a][1,4]benzodiazepine] | 2.02 | 0.0634 | 0.0554 | 36.4 | 1.56 | 0.0032 |
| COC[C@@H]1N=C(c2c(F)cccc2F)c2c(ccc(Br)c2Cl)-n2c(C)nnc21 [Example 100, (4R)-8-bromo-7-chloro-6-(2,6-difluorophenyl)-4-(methoxymethyl)-1-methyl-4H-[1,2,4]triazolo[4,3-a][1,4]benzodiazepine] | 0.288 | 0.034 | 0.0198 | 14.6 | 1.16 | 0.0034 |
| Cc1nnc2n1-c1ccc(Br)c(Cl)c1C(c1c(F)cccc1F)=N[C@H]2CO [Example 101, [(4R)-8-bromo-7-chloro-6-(2,6-difluorophenyl)-1-methyl-4H-[1,2,4]triazolo[4,3-a][1,4]benzodiazepin-4-yl]methanol] | 0.495 | 0.0143 | 0.0264 | 18.8 | 1.27 | 0.001 |
